Measurements reported in PubChem BioAssay AID1996.
In brackets after ≈: the same amount, converted by molar mass.

Settings: buffer; pH 7.4; 200.0 µM

| SMILES | solubility kinetic [µg/mL] |
| --- | --- |
| CC(C)C(OC(=O)c1ccc(Cl)nc1)C(=O)NC1CCCCC1 (centres undefined) | 29.7 (≈ 87.7 µM) |
| CN(C)c1ccc(/C=C/C#N)cc1 | 5.4 (≈ 31.4 µM) |
| CCN=C(NCC)SC1CC(=O)N(CCc2ccccc2)C1=O (centres undefined) | 36.3 (≈ 109 µM) |
| COc1ccccc1NC(=O)CSc1nc(SC)ns1 | 32.8 (≈ 100 µM) |
| O=C(Cc1ccccc1)O/N=C1\CCCc2ccccc21 | 17.1 (≈ 61.2 µM) |
| CCCOP(=O)(c1ccc(N(C)C)cc1)C(O)c1cc(OC)ccc1OC (centres undefined) | > 59 |
| COc1ccc2nc(C)cc(Nc3cccc(C(=O)O)c3)c2c1 | 3.3 (≈ 10.7 µM) |
| CCOc1ccc(NC(=S)NCCCN2CCOCC2)cc1 | > 48.5 |
| Cc1cc(C)cc(NC(=O)CNC(c2ccccc2)c2ccccc2)c1 | 1.1 (≈ 3.19 µM) |
| Cc1cc(C(=O)Nc2ccc(F)cc2F)on1 | > 35.7 |
| COc1cccc(/C=C/C(=O)N2CCN(c3ccccn3)CC2)c1 | > 48.5 |
| COC(=O)c1cc(C(=O)NCC2CCCCC2)cc([N+](=O)[O-])c1 | 33.3 (≈ 104 µM) |
| COc1ccc(NC(=O)Nc2nc(C)cc(C)n2)c(OC)c1 | > 45.3 |
| Nc1ccccc1SCC(=O)Nc1ccc2c(c1)OCO2 | > 45.4 |
| Cc1ccc(C(=O)/C=C/c2ccc3ncccc3c2)cc1 | 1 (≈ 3.66 µM) |
| CCOc1ccc(NC(=O)CSc2ccccc2N)cc1 | > 45.4 |
| Cc1ccc(N2CC(C(=O)Nc3ccccc3N3CCCC3)CC2=O)cc1 (centres undefined) | 21.4 (≈ 58.9 µM) |
| O=C(N/C(=C/c1ccccc1Cl)C(=O)N1CCOCC1)c1ccccc1 | > 55.6 |
| Cl.OCCNCCNCc1ccccc1OCc1ccccc1 | > 50.5 |
| O=C(CN1C(=O)c2cccc3cccc1c23)NC1CCCC1 | 4.4 (≈ 14.9 µM) |
| COc1cccc(CNC(=O)Cn2ccc([N+](=O)[O-])n2)c1 | > 43.5 |
| Cc1cc(NC(=S)Nc2cccnc2)ccc1Br | 40.7 (≈ 126 µM) |
| CCOC(=O)c1sc(=NC(=O)c2ccc(F)cc2)n(C)c1C | 1.4 (≈ 4.34 µM) |
| Cc1ccccc1NC(=O)c1cccc(S(=O)(=O)Nc2cccc(C(=O)O)c2)c1 | 34.6 (≈ 84.3 µM) |

| SMILES | solubility kinetic [µg/mL] |
| --- | --- |
| CCOC(=O)c1csc(NC(=O)CN2CCCCC2)n1 | > 44.6 |
| O=C1CC(c2ccccc2)CC(O)=C1C=NCCc1ccccc1 (centres undefined) | 2.1 (≈ 6.57 µM) |
| Cc1cc(C)cc(NC(=O)CCN2CCOCC2)c1 | > 39.4 |
| Cc1cc(/C=C(\C#N)C(=O)N2CCCCC2)cc(C)c1O | > 42.7 |
| COc1cccc(C=Nc2ccc3c(c2)CCC3)c1O | 26.8 (≈ 100 µM) |
| O=C(CNC(=O)c1ccccc1F)Nc1ccc2c(c1)CCC2 | 2.9 (≈ 9.28 µM) |
| COC(=O)c1sc2nc3c(cc2c1N)CCCC3 | 2 (≈ 7.62 µM) |
| COC(=O)CSc1nnc(CNC(=O)c2ccc(OC)c(OC)c2)n1C | > 57.1 |
| O=C(NCCOC(=O)c1ccccc1)c1ccc([N+](=O)[O-])cc1 | 14 (≈ 44.5 µM) |
| O=C(NCc1ccco1)/C(=C\C=C\c1ccccc1)NC(=O)c1ccco1 | > 54.4 |
| COc1cccc(NC(=O)CSc2nnc(-c3cccnc3)o2)c1 | > 51.4 |
| Cc1ccc2c(c1)N(CC(=O)N1CCCCC1C)C(=O)CO2 (centres undefined) | > 45.4 |
| Cl.N#C/C(=C/c1cc(Cl)c(O)c(Cl)c1)C(=O)N1CCCCC1 | > 54.2 |
| CN1CCCN(c2ccc([N+](=O)[O-])cc2)CC1 | > 35.3 |
| Oc1ccc(N2CCN(CC(O)c3ccccc3)CC2)cc1 (centres undefined) | > 44.8 |
| COC(=O)CCC(=O)Nc1ccc2oc3c(c2c1)CCCC3 | 43.5 (≈ 144 µM) |
| CCNC(=O)c1ccc(N(C)S(=O)(=O)c2cccs2)cc1 | > 48.7 |
| Cc1cccc(-c2noc(CCCC(=O)NC3CCCCC3)n2)c1 | 4.5 (≈ 13.7 µM) |
| C/C(N)=C(/C#N)C(=O)COC(=O)c1cccc(C)c1O | 1.5 (≈ 5.47 µM) |
| COc1cccc(NC(=O)c2cc3ccccc3oc2=O)c1 | < 0.6 |
| N#C/C(=C\c1ccccc1)C(=O)Nc1nncs1 | > 38.4 |
| CN1CCN(c2nnc(-c3ccc(F)cc3)c3ccccc23)CC1 | > 48.4 |
| COc1ccccc1CNc1ncccn1.O=C(O)C(=O)O | 34.4 |
| CCCOC(=O)Cn1cnc2scc(-c3ccc(OC)cc3)c2c1=O | 27.7 (≈ 77.3 µM) |

| SMILES | solubility kinetic [µg/mL] |
| --- | --- |
| CCC(=O)NC(c1ccccc1)c1c(OC(C)=O)ccc2ccccc12 (centres undefined) | > 52.1 |
| Cc1c(C(=O)O)cc(C(C)(C)C)n1CCSCCO | 38.8 (≈ 136 µM) |
| Cc1cnc(C(=O)OCC(=O)NC(=O)c2ccccc2)cn1 | > 44.9 |
| CCn1c(SCC(N)=O)nnc1-c1ccc2c(c1)OCO2 | > 46 |
| Cc1cc(C)nc(NC2=NCCN2C(=S)Nc2ccc(C)c(C)c2)n1 | 2.4 (≈ 6.77 µM) |
| Cc1ccc(NC(=O)CN(C)C(=O)C2CCC2)cc1 | > 39.1 |
| CCOC(=O)Cc1c(C)nc(N)[nH]c1=O | 31.1 (≈ 147 µM) |
| COC(=O)c1c(-c2cccc(C)c2)csc1NC(=O)C1CCCO1 (centres undefined) | 11.1 (≈ 32.1 µM) |
| CCCOC(=O)Nc1nc(-c2ccc(C)cc2)c(C)s1 | 1.3 (≈ 4.48 µM) |
| CC(CCc1ccccc1)NCCC#N.Cl (centres undefined) | > 35.8 |
| CN(Cc1ccccc1)c1ncc(C=O)s1 | 27.8 (≈ 120 µM) |
| O=C(c1cc(-c2ccc(O)cc2)on1)N1CCCC1 | > 38.7 |
| CN(Cc1ccccc1)C(=S)NC(=O)c1cccs1 | > 43.6 |
| CC(=O)C1=C(C)NC(=S)NC1c1cccc([N+](=O)[O-])c1 (centres undefined) | 3.5 (≈ 12 µM) |
| Cc1cc(NC(=O)CSc2nc3c(C)c(C)ccc3cc2C)no1 | < 0.2 |
| CCOC(=O)c1cc(C#N)c(SC)nc1C | 0.9 (≈ 3.81 µM) |
| Cc1ccc(C(=O)Nc2ccccc2N2CCCC2)cc1 | 31.4 (≈ 112 µM) |
| Cc1c(Cl)cccc1NC(=O)CCN1CCN(C)CC1 | > 44.4 |
| COc1ccccc1-n1cc(-c2ccccc2)[nH]c1=S | 3 (≈ 10.6 µM) |
| COCCn1c(C)cc(C(=O)COC(=O)/C=C/c2ccc(OC)cc2OC)c1C | 2.7 (≈ 6.73 µM) |
| O=CN1CCN(C(=O)c2cccc3c2-c2ccccc2C3=O)CC1 | > 48.1 |
| O=S(=O)(NCCC1CC1(Cl)Cl)c1ccccc1 (centres undefined) | 39.8 (≈ 135 µM) |
| NS(=O)(=O)c1ccc(CNC(=O)c2ccc(NS(=O)(=O)c3cccs3)cc2)cc1 | > 67.7 |
| CC1CN(CC(=O)Nc2ccc(S(N)(=O)=O)cc2)CC(C)O1 (centres undefined) | > 49.1 |

| SMILES | solubility kinetic [µg/mL] |
| --- | --- |
| O=C(COC(=O)C1=COCCO1)Nc1ccc(Br)cc1Br | 6.6 (≈ 15.7 µM) |
| CCOC(=O)C1CCCN(C(=O)c2ccc3ncsc3c2)C1 (centres undefined) | > 47.8 |
| Cc1cc(C)c2nc(N(CCN(C)C)C(=O)/C=C/c3cccs3)sc2c1.Cl | 0.9 |
| Cc1csc(NC(=O)CS(=O)(=O)c2ccccc2)n1 | 44.3 (≈ 149 µM) |
| COCC(=O)N1CCN(c2cccc(Cl)c2)CC1 | > 40.3 |
| CC1=C(C)CC(C(=O)NC2CCN(C(C)C)CC2)C(C(=O)O)C1 (centres undefined) | > 48.4 |
| CN(C)C(CNC(=O)c1cc2ccccc2o1)c1ccco1 (centres undefined) | > 44.8 |
| O=C(CNC(=O)c1cccs1)NCC(=O)OCC(=O)c1ccccc1 | > 54.1 |
| Cc1c(C#N)c2ccccc2n1C | 19.9 (≈ 117 µM) |
| COc1ccc([N+](=O)[O-])cc1NC(=O)C(C)OC(=O)C1CCCC1 (centres undefined) | 12 (≈ 35.7 µM) |
| CC1CC(C)CN(C(=O)COC(=O)CCC(=O)c2cccs2)C1 (centres undefined) | > 50.6 |
| S=C(Nc1ccccn1)Nc1ccccc1Cl | 2.1 (≈ 7.96 µM) |
| CC(=O)c1c(Nc2cccc(F)c2)oc(C)cc1=O | 31.3 (≈ 120 µM) |
| COc1ccc(NC(=O)CCN2C(=O)[C@@H]3[C@H](C2=O)[C@H]2C=C[C@@H]3C2)cc1 | 46.7 (≈ 137 µM) |
| O=S(=O)(c1ccc(N2CCCC2)nc1)N1CCCC1 | 36.4 (≈ 129 µM) |
| O=C(NC(=S)Nc1ccccc1C(=O)O)c1cncc(Br)c1 | > 57 |
| Cc1ccc(C)c(N2CCN(C(=O)C3CCC3)CC2)c1 | > 40.9 |
| O=C(CCc1ccccc1)NCCc1ccc(F)cc1 | 37.4 (≈ 138 µM) |
| O=C(Nc1ccccc1C(=O)N1CCCCC1)c1cccs1 | > 47.2 |
| Cn1c(N)c(C(=O)c2ccc(Cl)c(S(=O)(=O)N3CCCCCC3)c2)c(=O)n(C)c1=O | > 68.2 |
| COc1cc(OC)cc(C(=O)NC(C(=O)NCCc2ccccn2)C(C)C)c1 (centres undefined) | > 57.8 |
| Cc1ccc(S(=O)(=O)Nc2ncnc3ccccc23)cc1 | > 44.9 |
| Cc1c(NC(=O)C(C)Oc2cccc(F)c2)c(=O)n(-c2ccccc2)n1C (centres undefined) | > 55.4 |
| CC(C)Nc1nc(SC(C)C(=O)Nc2ccccc2)nc(N(C)C)n1 (centres undefined) | 26.5 (≈ 73.5 µM) |

| SMILES | solubility kinetic [µg/mL] |
| --- | --- |
| O=C(NCCc1c[nH]c2ccccc12)c1ccccc1Cl | 23.2 (≈ 77.7 µM) |
| CCOc1ccc(/C=C/c2nc(C#N)c(NCCCN(C)C)o2)cc1 | > 51.1 |
| CCCC(=O)Nc1nc(CC(=O)OCC)cs1 | > 38.4 |
| COc1ccc(S(=O)(=O)NC(C)C(=O)N2CCCCCC2)cc1 (centres undefined) | > 51.1 |
| O=C(COC(=O)CC1CCCC1)Nc1ccc(OC(F)F)cc1 | 42.1 (≈ 129 µM) |
| CN(C)c1cc[n+](CC(=O)Nc2ccc(OC(F)F)cc2)cc1.[Cl-] | > 53.7 |
| COc1ccc(NC(=O)c2cc(-c3ccco3)nc3ccccc23)cc1 | < 0.4 |
| CC(=O)Nc1cccc(Oc2ccc3c(c2)C(=O)NC3=O)c1 | > 44.4 |
| Cc1ccc(-c2sc(-c3cccnc3)nc2CC(=O)O)cc1 | > 46.6 |
| O=C(/C=C1\SC(=O)NC1=O)Nc1ccc(C(=O)O)cc1 | > 43.8 |
| CCN(CC(=O)NC1CCS(=O)(=O)C1)S(=O)(=O)c1ccc(Br)cc1 (centres undefined) | > 65.9 |
| O=C(Nc1cccc(S(=O)(=O)N2CCOCC2)c1)c1ccc(Cl)nc1 | > 57.3 |
| NC(=O)C1CCN(c2oc(-c3cccs3)nc2S(=O)(=O)c2ccc(Cl)cc2)CC1 | 51.9 (≈ 115 µM) |
| O=Cc1ccc(Oc2nc(Cl)ncc2F)cc1 | 36.8 (≈ 146 µM) |
| COc1ccc(N(CCC#N)C(=O)/C(C#N)=C\c2cccs2)cc1 | > 50.6 |
| COc1ccc(C(C)NC(=S)NCc2ccc(F)cc2)cc1 (centres undefined) | 4.4 (≈ 13.8 µM) |
| Cc1cc(Br)cc2c1N(C)C(=O)C2(c1ccc(O)cc1)c1ccc(O)cc1 | 7.4 (≈ 17.4 µM) |
| Cc1nc(N2CCN(c3ccc(Cl)cc3)CC2)[nH]c(=O)c1C | 1.6 (≈ 5.02 µM) |
| C=CCn1c(=O)c2ccccc2n2c(SCC(=O)O)nnc12 | > 47.4 |
| O=C(NCc1ccncc1)c1cncc(Br)c1 | > 43.8 |
| O=C(Nc1ccncc1)Nc1cccc(Cl)c1 | 35.9 (≈ 145 µM) |
| CN(C)c1c(F)cc(C(=O)NC(=O)NCc2cccnc2)cc1F | 4 (≈ 12 µM) |
| O=C(CCc1ccccc1)NCC1(c2ccccc2)CCCC1 | 23.8 (≈ 77.4 µM) |
